Measured values as given in US9115144B2, “Fused heterocyclic derivative and pharmaceutical use thereof” (KISSEI PHARMACEUTICAL CO., LTD., priority 2011, dated 2015).

The compounds below were run against Xanthine oxidase (from bovine milk, Sigma) (Bos taurus (Bovine), UniProt P80457) (assay: Xanthine oxidase inhibitory activity). Settings: xanthine 200 μM added at 100 μL/well, 10 minutes at room temperature, absorbance at 290 nm.
Format: biochemical
Protocol: Xanthine Oxidase Inhibitory Activity
(1) Preparation of Test Compounds
Test compounds were dissolved in dimethyl sulfoxide (DMSO) (manufactured by Wako pure chemical) at 40 mM concentration and then diluted to intended concentrations with phosphate-buffered saline (PBS).
(2) Method for Measurement
Xanthine oxidase (from bovine milk, Sigma) was prepared with phosphate-buffered saline (PBS) at 0.02 units/mL, and then the solution was added to 96 well plates at 50 μL/well. In addition, test compounds diluted with PBS were added at 50 μL/well. Xanthine (manufactured by Wako pure chemical) at 200 μM prepared with PBS was added at 100 μL/well, and the reaction was conducted for 10 minutes at room temperature. Absorbance at 290 nm was measured by using a microplate reader SpectraMax Plus 384 (manufactured by Molecular device). The absorbance under a condition without xanthine is 0%, and control without test compounds is 100%. Fifty % inhibitory concentration of a test compounds (IC50) was calculated (Table 5). “Ex. No.” in the table indicates Example number.

Sequence of Xanthine oxidase (from bovine milk, Sigma) (P80457 whole entry): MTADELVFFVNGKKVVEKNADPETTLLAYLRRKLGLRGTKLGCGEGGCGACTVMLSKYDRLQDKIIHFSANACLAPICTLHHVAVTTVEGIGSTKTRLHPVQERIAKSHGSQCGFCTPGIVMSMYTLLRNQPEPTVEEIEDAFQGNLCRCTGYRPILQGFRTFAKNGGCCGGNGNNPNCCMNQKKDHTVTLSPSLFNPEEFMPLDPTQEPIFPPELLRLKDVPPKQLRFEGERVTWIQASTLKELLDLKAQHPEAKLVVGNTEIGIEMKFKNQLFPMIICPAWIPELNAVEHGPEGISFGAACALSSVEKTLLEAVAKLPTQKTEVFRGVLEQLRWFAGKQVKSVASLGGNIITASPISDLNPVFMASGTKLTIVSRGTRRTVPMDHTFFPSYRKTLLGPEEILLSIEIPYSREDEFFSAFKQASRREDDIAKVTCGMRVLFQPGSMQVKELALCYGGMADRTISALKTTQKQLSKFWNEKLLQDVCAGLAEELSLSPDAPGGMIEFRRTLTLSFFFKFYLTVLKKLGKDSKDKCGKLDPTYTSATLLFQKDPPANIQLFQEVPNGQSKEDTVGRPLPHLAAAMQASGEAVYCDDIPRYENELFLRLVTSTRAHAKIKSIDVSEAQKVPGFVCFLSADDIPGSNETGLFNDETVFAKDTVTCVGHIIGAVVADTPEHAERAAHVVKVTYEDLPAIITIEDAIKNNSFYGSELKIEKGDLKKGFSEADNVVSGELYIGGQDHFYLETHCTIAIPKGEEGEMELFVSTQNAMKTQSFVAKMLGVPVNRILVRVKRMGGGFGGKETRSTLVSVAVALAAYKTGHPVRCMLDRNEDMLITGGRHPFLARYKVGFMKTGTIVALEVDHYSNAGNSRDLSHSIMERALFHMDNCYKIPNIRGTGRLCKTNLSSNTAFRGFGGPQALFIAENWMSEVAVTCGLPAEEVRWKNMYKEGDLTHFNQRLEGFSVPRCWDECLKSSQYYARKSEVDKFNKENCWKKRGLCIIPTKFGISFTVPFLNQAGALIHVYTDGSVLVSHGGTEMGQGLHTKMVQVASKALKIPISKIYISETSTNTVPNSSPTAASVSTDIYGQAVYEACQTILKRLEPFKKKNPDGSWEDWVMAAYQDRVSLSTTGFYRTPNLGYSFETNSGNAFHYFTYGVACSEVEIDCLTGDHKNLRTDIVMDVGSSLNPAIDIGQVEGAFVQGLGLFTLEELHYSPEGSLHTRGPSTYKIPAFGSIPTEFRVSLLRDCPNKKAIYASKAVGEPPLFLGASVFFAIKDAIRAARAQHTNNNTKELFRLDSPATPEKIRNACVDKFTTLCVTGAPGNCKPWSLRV

Row | Compound | IC50
1 | Cc1cc2c(s1)c(C#N)cn2-c1ccc(C(=O)O)c(O)c1 [Example 1, 4-(6-Cyano-2-methyl-thieno[3,2-b]pyrrol-4-yl)-2-hydroxybenzoic acid] | 13 nM
2 | N#Cc1cn(-c2ccc(C(=O)O)c(O)c2)c2ccsc12 [Example 5, 4-(6-Cyano-thieno[3,2-b]pyrrol-4-yl)-2-hydroxybenzoic acid] | 10 nM
3 | N#Cc1cn(-c2ccc(C(=O)O)c(O)c2)c2cscc12 [Example 7] | 10 nM
4 | N#Cc1cn(-c2ccc(C(=O)O)c(O)c2)c2sc(Br)cc12 [Example 8] | 14 nM
5 | N#Cc1cn(-c2ccc(C(=O)O)c(O)c2)c2sccc12 [Example 9] | 13 nM

Each compound was assayed against human URAT1 (Homo sapiens (Human), UniProt Q96S37) (assay: Inhibitory activity of uric acid transport with human URAT1 expressing cells). Settings: 10 μM test compound; URAT1-expressing HEK293 cells; 14C uric acid 50 μM, 2 minutes at 37° C.; read-out: Percent inhibition of uric acid uptake.
Format: cell-based
Protocol: Inhibitory Activity of Uric Acid Transport with Human URAT1 Expressing Cells
(1) Cells Used in the Test
URAT1-expressing HEK293 cells (HEK293 cells transfected with vector containing human URAT1 cDNA) and control cells (HEK293 cells transfected with vector alone) were used.
URAT1-expressing cells and control cells were seeded in collagen I-coated 24-well plates (manufactured by Becton, Dickinson and Company) at 1 to 4×10^5 cells/well, and cultured in CO2 incubator (37° C., CO2: 5%) for 1 to 3 days, and then the following measurement of uric acid transport was conducted. […]
After the medium was removed from the plates in which cells were seeded, and 1 mL of HBSS was added to the cells. […] The radioactivity was measured by means of a liquid scintillation counter. […]
Protein concentration in the cell lysates was determined by BCA Protein Assay Kit (manufactured by Pierce) and then amount of protein (mg/well) was calculated. […]
Uric acid uptake activity in each well was calculated by the following formula. Uric acid uptake activity (p mol/mg protein)=radioactivity (dpm/well)/[amount of protein (mg/well)×concentration of radioactivity in HBSS containing ^14C uric acid (dpm/p mol)]
Percent inhibition was calculated according to the following formula. […]

Sequence of human URAT1 (Q96S37 whole entry): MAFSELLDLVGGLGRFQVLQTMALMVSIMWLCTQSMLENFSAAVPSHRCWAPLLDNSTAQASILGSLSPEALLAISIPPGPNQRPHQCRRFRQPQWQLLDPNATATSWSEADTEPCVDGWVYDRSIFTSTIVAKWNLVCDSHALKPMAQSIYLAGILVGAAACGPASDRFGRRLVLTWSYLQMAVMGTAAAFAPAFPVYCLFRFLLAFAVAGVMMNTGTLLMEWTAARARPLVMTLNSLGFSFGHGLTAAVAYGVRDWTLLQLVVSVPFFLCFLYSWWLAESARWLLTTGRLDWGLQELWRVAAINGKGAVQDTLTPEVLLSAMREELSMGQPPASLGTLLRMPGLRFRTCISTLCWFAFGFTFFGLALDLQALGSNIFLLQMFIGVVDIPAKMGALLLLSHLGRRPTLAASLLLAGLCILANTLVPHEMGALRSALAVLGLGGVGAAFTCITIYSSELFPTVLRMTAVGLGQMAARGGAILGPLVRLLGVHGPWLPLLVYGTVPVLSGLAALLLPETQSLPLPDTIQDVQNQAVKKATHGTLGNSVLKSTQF

Row | Compound | inhibition at 10 µM
6 | N#Cc1cn(-c2ccc(C(=O)O)c(O)c2)c2sccc12 [Example 9] | ≥ 50%
